Assay results reported in the NIST ThermoML archive (doi:10.1021/je0497698).
Numbers after ± are expanded uncertainties.

Details: Liquid

For `FCF` [difluoromethane], the “vapor or sublimation pressure” value (273.15 K) was 816.8 ± 2.2 kPa, the “vapor or sublimation pressure” value (283.15 K) was 1111.8 ± 2.2 kPa and the “vapor or sublimation pressure” value (293.15 K) was 1480.2 ± 2.4 kPa. For the same compound, the “vapor or sublimation pressure” value (303.15 K) was 1930.4 ± 2.5 kPa and the “vapor or sublimation pressure” value (313.15 K) was 2478 ± 2.8 kPa.
In the case of `C=CC` [propene], the “vapor or sublimation pressure” value (273.15 K) is reported as 587.8 ± 2.1 kPa, the “vapor or sublimation pressure” value (283.15 K) is reported as 781.2 ± 2.1 kPa and the “vapor or sublimation pressure” value (293.15 K) is reported as 1020.2 ± 2.2 kPa. For the same compound, the “vapor or sublimation pressure” value (303.15 K) was 1308.2 ± 2.3 kPa and the “vapor or sublimation pressure” value (313.15 K) was 1650.8 ± 2.5 kPa.
